Where two headings read alike, the source gives them in different places. Starred links: 1 amine or outer side, 2 acyl side, 3 side chain; linkers in the order of their positions; H or OH if unused. Non-standard residues stand in square brackets, D forms with d. Residues, ends and D or L forms follow the SMILES beside them. *: point of attachment. X4 = CC(C)[C@@H](C(=O)[*:2])N(CCCCN(C)C(=O)OC(C)(C)C)[*:1]; Dolaproine = CO[C@@H]([C@@H]1CCCN1)[C@@H](C)C(=O)O; X3 = CC(C)[C@@H](C(=O)[*:2])N(C)CCCCN(C)[*:1]; X16 = CC(CCN(C)[C@H](C(=O)*)C(C)C)CC(C)(C)C; X18 = CCCCCCCCCCCCCCCN(C)[C@H](C(=O)*)C(C)C; Dil = CC[C@H](C)[C@H](NC)[C@@H](CC(=O)O)OC; X6 = CC(C)[C@@H](C(=O)[*:2])N(C)CCCN[*:1]; X24 = CC(C)CCCN(C)[C@H](C(=O)*)C(C)C; X1 = C[C@@H](N*)[C@@H](O)c1ccccc1; NMeV = CN[C@H](C(=O)O)C(C)C; Boc = CC(C)(C)OC(=O)*
Legend:
Type in all cases: cell-based
SK-MEL-5 Melanoma = experiment: In vitro cytotoxicity, free drugs on SK-MEL-5; settings: free drug
Experimental: (§1) The cytotoxicity of an auristatin Ligand Drug Conjugate or free auristatin drug was measured by a cell proliferation assay employing the protocol described in Promega Corp. Technical Bulletin TB288; Mendoza et al., 2002, Cancer Res. 62:5485-5488), the methods of which is specifically incorporated by reference herein. Briefly, an aliquot of 100 μl of cell culture containing about […] (e.g., HL-60, SK-MEL-5, etc.) in medium is deposited in each well of a 96-well, opaque-walled plate. Control wells were prepared containing medium and without cells. Free Drug or conjugate is added to the experimental wells and incubated for 96 h and are then equilibrated to room temperature for approximately 30 minutes whereupon a volume of CellTiter-Glo™ reagent equal to the volume of cell culture medium present in each well is added. The contents are mixed for 2 minutes on an orbital shaker to induce cell lysis and the plate is incubated at room temperature for 10 minutes to stabilize the luminescence signal for recordation.

A2058 Melanoma = experiment: In vitro cytotoxicity, free drugs on A2058; settings: free drug
Experimental: as §1

IGR-37 Melanoma = experiment: In vitro cytotoxicity, free drugs on IGR-37; settings: free drug
Experimental: as §1

A375 Melanoma = experiment: In vitro cytotoxicity, free drugs on A375; settings: free drug
Experimental: as §1

SK-MEL-28 Melanoma = experiment: In vitro cytotoxicity, free drugs on SK-MEL-28; settings: free drug
Experimental: as §1

[1] = In vitro cytotoxicity, free drugs on Colo-853; settings: free drug; read-out: In vitro IC50 Colo-853 Colon Cancer
Experimental: as §1

[2] = system: MDR− HL60 acute myeloid leukemia cell line; experiment: In vitro cytotoxicity (CellTiter-Glo cell proliferation assay), free drugs on HL60; settings: read-out: In vitro IC50 HL60 (MDR−)
Experimental: as §1

[3] = system: MDR+ HL60/RV acute myeloid leukemia cell line; experiment: In vitro cytotoxicity (CellTiter-Glo cell proliferation assay), free drugs on HL60/RV; settings: read-out: In vitro IC50 HL60/RV (MDR+)
Experimental: as §1

| SMILES | IC50 [1] [nM] | IC50 ([2]; Homo sapiens, HL-60, 96 h) [nM] | IC50 ([3]; Homo sapiens, HL-60, 96 h) [nM] | IC50 (SK-MEL-5 Melanoma; Homo sapiens, SK-MEL-5) [nM] | IC50 (A2058 Melanoma; Homo sapiens, A2058) [nM] | IC50 (IGR-37 Melanoma; Homo sapiens, IGR-37) [nM] | IC50 (A375 Melanoma; Homo sapiens, A-375) [nM] | IC50 (SK-MEL-28 Melanoma; Homo sapiens, SK-MEL-28) [nM] | other results |
| --- | --- | --- | --- | --- | --- | --- | --- | --- | --- |
| CC[C@H](C)[C@@H]([C@@H](CC(=O)N1CCC[C@H]1[C@H](OC)[C@@H](C)C(=O)N[C@@H](Cc1ccccc1)C(=O)O)OC)N(C)C(=O)[C@@H](NC(=O)[C@@H](NC)C(C)C)C(C)C [Compound 2, Monomethyl auristatin F, reference compound] (H-[NMeV]V[Dil][Dolaproine]F-OH) | 90.2 |  |  |  |  |  |  |  | IC50 (SK-MEL-5 Melanoma): 35.6 nM; IC50 (A2058 Melanoma): 84.2 nM; IC50 (IGR-37 Melanoma): 72.5 nM; IC50 (A375 Melanoma): 48.9 nM; IC50 (SK-MEL-28 Melanoma): 138 nM |
| CC[C@H](C)[C@@H]([C@@H](CC(=O)N1CCC[C@H]1[C@H](OC)[C@@H](C)C(=O)N[C@H](C)[C@@H](O)c1ccccc1)OC)N(C)C(=O)[C@@H](NC(=O)[C@@H](NC)C(C)C)C(C)C [Compound 3, Monomethyl auristatin E, reference compound] (H-[NMeV]V[Dil][Dolaproine]-X1) | 0.1 |  |  |  |  |  |  |  | IC50 (SK-MEL-5 Melanoma): 0.1 nM; IC50 (A2058 Melanoma): 0.1 nM; IC50 (IGR-37 Melanoma): 0.2 nM; IC50 (A375 Melanoma): 0.1 nM; IC50 (SK-MEL-28 Melanoma): 0.1 nM; IC50 ([2]; free drug, 96 h incubation): 1 nM; IC50 ([3]; free drug, 96 h incubation): 180 nM |
| CCCCCCCCCCCCCCCN(C)[C@H](C(=O)N[C@H](C(=O)N(C)[C@@H]([C@@H](C)CC)[C@@H](CC(=O)N1CCC[C@H]1[C@H](OC)[C@@H](C)C(=O)N[C@@H](Cc1ccccc1)C(=O)O)OC)C(C)C)C(C)C [Compound 15, Pentadecyl-AF] (X18-V[Dil][Dolaproine]F-OH) |  | 4.7 | 294 |  |  |  |  |  |  |
| CC[C@H](C)[C@@H]([C@@H](CC(=O)N1CCC[C@H]1[C@H](OC)[C@@H](C)C(=O)N[C@@H](Cc1ccccc1)C(=O)O)OC)N(C)C(=O)[C@@H](NC(=O)[C@H](C(C)C)N(C)CCCCN(C)C(=O)OC(C)(C)C)C(C)C [Compound 16, (Boc-N-methyl)-butyl-AF] (Boc-[X3]V[Dil][Dolaproine]F-OH) | 6.2 |  |  | 0.4 | 0.9 | 2.5 | 0.7 | 4.4 |  |
| CC[C@H](C)[C@@H]([C@@H](CC(=O)N1CCC[C@H]1[C@H](OC)[C@@H](C)C(=O)N[C@@H](Cc1ccccc1)C(=O)O)OC)N(C)C(=O)[C@@H](NC(=O)[C@@H](NCCCCN(C)C(=O)OC(C)(C)C)C(C)C)C(C)C [Compound 17, (Boc-N-methyl)-butyl-AF] (H-[X4]V[Dil][Dolaproine]F-OH) | 66.2 |  |  | 26.2 | 20.3 | 62.7 | 14.8 | 77.3 |  |
| CC[C@H](C)[C@@H]([C@@H](CC(=O)N1CCC[C@H]1[C@H](OC)[C@@H](C)C(=O)N[C@@H](Cc1ccccc1)C(=O)O)OC)N(C)C(=O)[C@@H](NC(=O)[C@H](C(C)C)N(C)CCCNC(=O)OC(C)(C)C)C(C)C [Compound 18, N-Boc-propyl-AF] (Boc-[X6]V[Dil][Dolaproine]F-OH) | 17.5 |  |  | 4 | 9.1 | 13.7 | 4.9 | 21 |  |
| CC[C@H](C)[C@@H]([C@@H](CC(=O)N1CCC[C@H]1[C@H](OC)[C@@H](C)C(=O)N[C@@H](Cc1ccccc1)C(=O)O)OC)N(C)C(=O)[C@@H](NC(=O)[C@H](C(C)C)N(C)CCCC(C)C)C(C)C [Compound 19, 4-Methylpentyl-AF] (X24-V[Dil][Dolaproine]F-OH) |  | 4.9 | 20.5 |  |  |  |  |  |  |
| CC[C@H](C)[C@@H]([C@@H](CC(=O)N1CCC[C@H]1[C@H](OC)[C@@H](C)C(=O)N[C@@H](Cc1ccccc1)C(=O)O)OC)N(C)C(=O)[C@@H](NC(=O)[C@H](C(C)C)N(C)CCC(C)CC(C)(C)C)C(C)C (some centres unmarked) [Compound 20, 3,5,5-Trimethylhexyl-AF] (X16-V[Dil][Dolaproine]F-OH) |  | 1 | 17 |  |  |  |  |  |  |
